The text below walks through data of paper PMC12059368 (Biomolecules & Therapeutics, 2024).

SMILES strings stand for the structures. Like-named read-outs stand apart in the source and are kept apart here.

One series relates to APAP-induced ALI rats. In words: Biochemical profile and tissue microscopy in APAP-induced ALI rats. It is filed as in vivo, Sprague-Dawley rats.
For another series, the system named is CYP3A1/2. The series can be described thus: Immunoblot of hepatic microsomes, CYP3A1/2. The class given is in vivo, rat. The following applies: RVT rats. (In general: Immunoblotting shows a protein as a band on a membrane.)
The conditions of series [1]: ref Popiolek et al., 2021; cited from earlier work.
A short description of a further series: in vivo. The following applies: Sprague-Dawley, rat, plasma, iv, 10 mg/kg, CON rats (control).
For series [2] the following is noted: ref Bannwarth et al., 2013, Dowty et al., 2014; cited from earlier work.
Series [3] is described as follows: In vitro metabolism of tofacitinib. The class given is in vitro ADME, rat. The settings on record: hepatic microsomes.
Series [4] can be described thus: Rat plasma protein binding of tofacitinib. It is filed as in vitro ADME. The following applies: for fraction unbound at 5 µg/mL: Sprague-Dawley, rat, plasma, Plasma protein binding.
The conditions of series [5]: intestinal microsomes, CON, RVT, ALI.
For series [6] the following is noted: iv 10 mg/kg.
The mark [7] stands for this setting: RVT 50 mg/kg ip, ALI-RVT vs ALI rats, plasma.
The mark [8] stands for this setting: oral 20 mg/kg, ALI rats (APAP 400 mg/kg ip).
[9] abbreviates: oral 20 mg/kg, ALI-RVT rats (RVT 50 mg/kg ip 1.5 h before APAP).
The mark [10] stands for this setting: oral 20 mg/kg, ALI-RVT vs ALI rats.
The mark [11] stands for this setting: oral 20 mg/kg, CON rats (control).
The mark [12] stands for this setting: oral 20 mg/kg, RVT rats (RVT 50 mg/kg ip).
[13] abbreviates: ALI-RVT rats (RVT 50 mg/kg ip 1.5 h before APAP).

With `Oc1ccc(/C=C/c2cc(O)cc(O)c2)cc1` [RVT, Resveratrol], the “Liver and kidney histology” value in the series with APAP-induced ALI rats (RVT 50 mg/kg ip, ALI-RVT rats) is on record as “alleviated tissue damage”. Besides, in the series with APAP-induced ALI rats (setting [7]), the “Decrease in GOT” value amounted to 35.1% and the “Increase in total protein” value is 4.50%. Further, the “Glutamate oxaloacetate transaminase levels” value in the series with APAP-induced ALI rats (RVT administration in ALI rats) is listed as “normalized”. The “CYP3A expression following RVT administration” value with CYP3A1/2 is reported as “slightly decreased”.
On to `CC(=O)Nc1ccc(O)cc1` [APAP, Acetaminophen], for which, in [1], the Safe dose entry is “up to 2,000 mg per day”.
The term AUC denotes the area under the concentration-time curve, a measure of exposure. A high value points to more exposure. The fraction unbound is the share of the substance not bound to proteins or other matrix. A low value points to little free substance. Consider `C[C@@H]1CCN(C(=O)CC#N)C[C@@H]1N(C)c1ncnc2[nH]ccc12` [tofacitinib, Tofacitinib], for which, in the series “in vivo”, the AUC was 4.07 µg·h/mL. The “Fraction of the oral dose metabolized by hepatic CYP3A4 and CYP2C19” value in series [2] is on record as “Approximately 70%”. For the same compound, the “CLint lower than in CON rats” value in series [3] (ALI rats) was 69.6%. Further, the “CLint as % of CON values” in series [3] (ALI-RVT rats) was 93.1%. Moreover, the “Km values, comparison across all groups” value in [3] (CON, RVT, ALI, ALI-RVT) was “remained consistent”. The compound further yielded a recovery at 30 min, 5 µg/mL in series [4] (PBS in Nanosep 10 K centrifugal filter unit (no plasma), pH 7.4) of 99.7 ± 2.51%. Moreover, the fraction unbound at 5 µg/mL is 0.358 in series [4] (plasma of ALI rats), 0.363 in series [4] (plasma of CON rats) and 0.349 in series [4] (plasma of RVT rats). Moreover, the “F values, comparison across the four groups” value (CON, RVT, ALI, ALI-RVT rats) is “similar”. Also, the “Ae0-24 h (drug excreted unchanged in urine for 24 h)” value under setting [8] was 3.04 ± 1.74 % of dose; the “Ae0-24 h (drug excreted unchanged in urine for 24 h)” value under setting [9] is 6.41 ± 1.86 % of dose; the “Ae0-24 h (drug excreted unchanged in urine for 24 h)” value under setting [11] was 4.72 ± 2.03 % of dose; the “Ae0-24 h (drug excreted unchanged in urine for 24 h)” value under setting [12] was 3.96 ± 2.11 % of dose; the “Ae0-24 h (drug excreted unchanged in urine for 24 h)” value in [6] (ALI rats (APAP 400 mg/kg ip)) is 4.26 ± 2.87 % of dose; the “Ae0-24 h (drug excreted unchanged in urine for 24 h)” value in [6] (setting [13]) is given as 9.25 ± 3.62 % of dose. Further, the results for the “Ae0-24 h (drug excreted unchanged in urine for 24 h)” value in [6] (CON rats (control)) and in series [6] (RVT rats (RVT 50 mg/kg ip)) were 5.30 ± 1.91 % of dose and 7.31 ± 3.12 % of dose, respectively. Also, the “GI24 h (drug remaining in the gastrointestinal tract at 24 h)” value under setting [8] is listed as 0.743 ± 0.917 % of dose; the “GI24 h (drug remaining in the gastrointestinal tract at 24 h)” value under setting [9] is 0.467 ± 0.243 % of dose; the “GI24 h (drug remaining in the gastrointestinal tract at 24 h)” value under setting [11] is 0.791 ± 1.06 % of dose; the “GI24 h (drug remaining in the gastrointestinal tract at 24 h)” value under setting [12] is 0.295 ± 0.0618 % of dose; the “GI24 h (drug remaining in the gastrointestinal tract at 24 h)” value in [6] (ALI rats (APAP 400 mg/kg ip)) is reported as 0.134 ± 0.0339 % of dose; the “GI24 h (drug remaining in the gastrointestinal tract at 24 h)” value in series [6] (setting [13]) was 0.115 ± 0.0493 % of dose. Further, the “GI24 h (drug remaining in the gastrointestinal tract at 24 h)” value is reported as 0.108 ± 0.0444 % of dose in series [6] (CON rats (control)) and 0.147 ± 0.00805 % of dose in series [6] (RVT rats (RVT 50 mg/kg ip)). Moreover, the “Decrease in CLR” value (oral 20 mg/kg, ALI vs CON rats) is 76.4%. Further, the “Increase in AUC” value (oral 20 mg/kg, ALI vs CON rats, 20 mg/kg) was found to be 181% and the “Increase in AUC” value in series [6] (ALI vs CON rats) is listed as 207%. Moreover, under setting [10], the “Decrease in AUC” value is on record as 41.4%. Moreover, the “Increase in CLR” value under setting [10] is given as 211% and the “Increase in CLR” value in series [6] (ALI-RVT vs ALI rats) was determined as 398%. Moreover, the GI24 h values entry (oral, both CON and ALI rats) is on record as “less than 0.791 % of the oral dose”. In [5], the “Vmax, Km, and CLint, comparison across the four groups” value is “no significant differences”. The “Increase in terminal half-life” value in series [6] (ALI vs CON rats) was found to be 113%. Also, the “Reduction in CL” value in [6] (ALI vs CON rats) is reported as 64.7%. Also, the “Reduction in CLNR” value in series [6] (ALI vs CON rats) is 66.1%. The “Increase in Ae0-24 h” value in [6] (ALI-RVT vs ALI rats) is 117%. In addition, the “Increase in CL” value in [6] (ALI-RVT vs ALI rats) was 142%. Further, in series [6] (ALI-RVT vs ALI rats), the “Increase in CLNR” value is 141%. In addition, the “Reduction in AUC” value in series [6] (ALI-RVT vs ALI rats) is reported as 62.0%. The Shorter terminal half-life in series [6] (ALI-RVT vs ALI rats) is 38.0%.
